Measurements as given in US20250051355A1, “COMPOUNDS, COMPOSITIONS, AND METHODS” (ACONCAGUA BIO, INC., priority 2023, published 2025).

Key:
[1] = target: human calcitonin receptor (CTR) and RAMP3 (AMY3) (Homo sapiens, UniProt O60896+P30988); experiment: Amylin Receptor cAMP Assay II; format: cell-based; settings: COS-7/AMY3 cells, cAMP dynamic 2 kit, read-out: Amylin Receptor cAMP Stimulation Activity: EC50
Method in brief: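 COS-7 cells stably co-expressing human CTR and RAMP3 (AMY3) were treated with 4-fold serially diluted compounds at 2000 cells/well in HBSS with 20 mM HEPES, 0.5 mM IBMX and 0.1% casein for 30 min at 37 °C. cAMP was measured by HTRF (cAMP-d2 plus anti-cAMP cryptate, 1 h at RT) with reads at 665/615 nm.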

[2] = target: T1, human calcitonin receptor (CTR) (Homo sapiens, UniProt P30988); experiment: Calcitonin receptor (CTR) cAMP Assay; format: cell-based; settings: COS7-human CTR Clone #2 cells, cAMP dynamic 2 kit; read-out: Calcitonin Receptor cAMP Stimulation Activity: EC50
T1 construct: expressed in transfected cells; host or cells: COS-7 (COS7-human CTR Clone #2)
T1 sequence (P30988 25-474): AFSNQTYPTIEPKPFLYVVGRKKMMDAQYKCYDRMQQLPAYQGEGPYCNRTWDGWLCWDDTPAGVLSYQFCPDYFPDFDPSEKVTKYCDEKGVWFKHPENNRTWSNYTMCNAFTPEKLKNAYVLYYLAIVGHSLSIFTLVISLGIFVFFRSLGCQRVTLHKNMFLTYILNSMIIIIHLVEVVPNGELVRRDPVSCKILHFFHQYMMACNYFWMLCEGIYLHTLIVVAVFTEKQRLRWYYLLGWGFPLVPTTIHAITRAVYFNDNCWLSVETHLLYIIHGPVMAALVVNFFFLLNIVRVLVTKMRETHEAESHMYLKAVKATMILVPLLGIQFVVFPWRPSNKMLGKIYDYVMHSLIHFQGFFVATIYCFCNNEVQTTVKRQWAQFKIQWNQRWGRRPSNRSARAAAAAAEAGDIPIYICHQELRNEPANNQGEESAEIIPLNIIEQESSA
Method in brief: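 COS-7 cells stably expressing human CTR (2000 cells/well) treated with 4-fold serially diluted compounds in HBSS/20 mM HEPES/0.5 mM IBMX/0.1% casein, 30 min at 37° C. cAMP quantified by HTRF (cAMP-d2 plus anti-cAMP cryptate, 1 h RT), fluorescence read at 665 and 615 nm.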

Sequence of human calcitonin receptor (CTR) and RAMP3 (AMY3) (O60896 24-148, one chain of several): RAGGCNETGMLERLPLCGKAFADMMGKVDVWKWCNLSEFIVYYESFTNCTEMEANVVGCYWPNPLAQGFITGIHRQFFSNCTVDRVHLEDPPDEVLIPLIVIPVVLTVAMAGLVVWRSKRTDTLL

Row | SMILES | EC50 [1] [nM] | EC50 [2] [nM]
1 | CC(C)c1nnc(-c2c(CCC34CCC(CC3)OC4)nc3c(c2-c2ccc4c(c2)oc(=O)n4Cc2ccc(C#N)c(F)c2)c(=O)n2n3CCC2)o1 [Compound 153, 2-fluoro-4-({6-[10-(5-isopropyl-1,3,4-oxadiazol-2-yl)-11-(2-(2-oxabicyclo[2.2.2]oct-4-yl)ethyl}-7-oxo-2,6,12-triazatricyclo[6.4.0.0^2,6]dodeca-1(12),8,10-trien-9-yl]-2-oxo-1,3-benzoxazol-3-yl}methyl)benzonitrile] | 12.2 | 0.324
2 | Cc1nnc(-c2c(CCC3CCOCC3)nc3c(c2-c2cc4ncnc(N[C@@H]5CCc6ncccc65)c4s2)S(=O)(=O)CC3C2CC2)o1 (stereo partly drawn) [Compound 103, N—(R)-4-aza-1-indanyl(2-(3-cyclopropyl-6-(5-methyl-1,3,4-oxadiazol-2-yl)-1,1-dioxo-5-[2-(tetrahydro-2H-pyran-4-yl)ethyl]-1λ^6-thia-4-aza-7-indanyl}-1-thia-4,6-diaza-7-indenyl)amine] | 1190 | 45.9
3 | Cc1nnc(-c2c(CCc3ccc(F)cc3)nc3c(c2-c2ccc4c(c2)oc(=O)n4C(C)c2ccc(C#N)c(F)c2)c(=O)n2n3CCC2)o1 (stereo not drawn) [Compound 140, 2-fluoro-4-[1-(6-(11-[2-(p-fluorophenyl)ethyl]-10-(5-methyl-1,3,4-oxadiazol-2-yl)-7-oxo-2,6,12-triazatricyclo[6.4.0.0^2,6]dodeca-1(12),8,10-trien-9-yl}-2-oxo-1,3-benzoxazol-3-yl)ethyl]benzonitrile] | 8.8 | 0.336
4 | Cc1nnc(-c2c(CC3COc4cc(F)ccc43)nc3c(c2-c2ccc(C(=O)NCc4ccc(F)c(F)c4)s2)C(=O)N2CCC[C@@H]32)o1 (stereo partly drawn) [Compound 67, 5-[(9aS)-2-[(6-fluoro-2,3-dihydrobenzofuran-3-yl)methyl]-3-(5-methyl-1,3,4-oxadiazol-2-yl)-5-oxo-7,8,9,9a-tetrahydropyrido[2,3-a]pyrrolizin-4-yl]-N-[(3,4-difluorophenyl)methyl]thiophene-2-carboxamide] | 412 | 22
5 | Cc1nnc(-c2c(C(C)C)nc3c(c2-c2ccc4c(c2)OCC(=O)N4Cc2ccc(F)cn2)C(=O)N2CCC[C@@H]32)o1 [Compound 158, 7-((2S)-11-isopropyl-10-(5-methyl-1,3,4-oxadiazol-2-yl)-7-oxo-6,12-diazatricyclo[6.4.0.0^2,6]dodeca-1(12),8,10-trien-9-yl}-4-[(5-fluoro-2-pyridyl)methyl]-2,4-dihydro-1,4-benzoxazin-3-one] | 5880 | 242
6 | Cc1nnc(-c2c(CCC3CCOCC3)nc3c(c2-c2ccc4c(cnn4C(C)c4ccc(C#N)c(F)c4)c2)C(=O)N2CCOC[C@@H]32)o1 (stereo partly drawn) [Compound 111, 4-[1-(5-((4aR)-7-(5-methyl-1,3,4-oxadiazol-2-yl)-9-oxo-6-[2-(tetrahydro-2H-pyran-4-yl)ethyl]-1,2,4,4a-tetrahydro-9H-3-oxa-5,9a-diazafluoren-8-yl}-1H-indazol-1-yl)ethyl]-2-fluorobenzonitrile] | 155 | 11.3
7 | Cc1nnc(-c2c(CCC3CCOCC3)nc3c(c2-c2ccc4c(c2)oc(=O)n4Cc2ccc(C#N)cn2)S(=O)(=O)N2CCC[C@@H]32)o1 [Compound 127, 6-[(6-{(2S)-10-(5-methyl-1,3,4-oxadiazol-2-yl)-7,7-dioxo-11-[2-(tetrahydro-2H-pyran-4-yl)ethyl]-7λ^6-thia-6,12-diazatricyclo[6.4.0.0^2,6]dodeca-1(12),8,10-trien-9-yl}-2-oxo-1,3-benzoxazolidin-3-yl)methyl]nicotinonitrile] | 209 | 3.86
8 | Cc1nnc(-c2c(CCC3CCOCC3)nc3c(c2-c2ccc4c(c2)oc(=O)n4Cc2ccc(C#N)cn2)C(=O)N2CCC[C@@H]32)o1 [Compound 125, 6-[(6-((2S)-10-(5-methyl-1,3,4-oxadiazol-2-yl)-7-oxo-11-[2-(tetrahydro-2H-pyran-4-yl)ethyl]-6,12-diazatricyclo[6.4.0.0^2,6,]dodeca-1(12),8,10-trien-9-yl}-2-oxo-1,3-benzoxazol-3-yl)methyl]nicotinonitrile] | 174 | 6.63
9 | Cc1cnc(-c2c(CCC3CCOCC3)nc3c(c2-c2ccc4c(c2)oc(=O)n4Cc2ccc(C#N)c(F)c2)c(=O)n2n3CCC2)o1 [Compound 152, 2-fluoro-4-[(6-(10-(5-methyl-1,3-oxazol-2-yl)-7-oxo-11-[2-(tetrahydro-2H-pyran-4-yl)ethyl]-2,6,12-triazatricyclo[6.4.0.0^2,6]dodeca-1(12),8,10-trien-9-yl}-2-oxo-1,3-benzoxazol-3-yl)methyl]benzonitrile] | 40.1 | 7.28

The remaining lines, values ahead:

Row | EC50 [1] [nM] | EC50 [2] [nM] | SMILES
10 | 449 | 72.8 | Cc1ccnc(-c2c(CCC3CCOCC3)nc3c(c2-c2cc4ccnc(N[C@@H]5CCc6ncccc65)c4s2)S(=O)(=O)CC3C(C)C)c1 (stereo partly drawn) [Compound 118, N—(R)-4-aza-1-indanyl(2-(3-isopropyl-6-(4-methyl-2-pyridyl)-1,1-dioxo-5-[2-(tetrahydro-2H-pyran-4-yl)ethyl]-11′-thia-4-aza-7-indanyl}-1-thia-6-aza-7-indenyl)amine]
11 | 508 | 71 | Cc1nnc(-c2c(CCC3CCOCC3)nc3c(c2-c2cc4ccnc(N[C@@H]5CCc6ncccc65)c4s2)C(=O)N[C@H]3C(C)C)o1 [Compound 76]
12 | 1300 | 226 | Cc1nnc(-c2c(CC3CCOCC3)nc3c(c2-c2cc4ccnc(N[C@@H]5CCc6ncccc65)c4s2)S(=O)(=O)CC3C(C)C)o1 (stereo partly drawn) [Compound 96, N—(R)-4-aza-1-indanyl(2-(3-isopropyl-6-(5-methyl-1,3,4-oxadiazol-2-yl)-1,1-dioxo-5-[(tetrahydro-2H-pyran-4-yl)methyl]-1λ^6-thia-4-aza-7-indanyl}-1-thia-6-aza-7-indenyl)amine]
13 | 857 | 35.6 | Cc1nnc(-c2c(CCC3CCOCC3)nc3c(c2-c2cc4ccnc(N[C@@H]5CCc6ncccc65)c4s2)C(=O)N2CCOC[C@@H]32)o1 [Compound 95, (R)-4-(7-(((R)-6,7-dihydro-5H-cyclopenta[b]pyridin-5-yl)amino)thieno[2,3-c]pyridin-2-yl)-3-(5-methyl-1,3,4-oxadiazol-2-yl)-2-(2-(tetrahydro-2H-pyran-4-yl)ethyl)-7,8,10,10a-tetrahydro-5H-pyrido[2′,3′:3,4]pyrrolo[2,1-c][1,4]oxazin-5-one]
14 | 68.3 | 11.6 | CC(C)C1CS(=O)(=O)c2c1nc(CCC1CCOCC1)c(-c1nnc[nH]1)c2-c1cc2ccnc(N[C@@H]3CCc4ncccc43)c2s1 (stereo partly drawn) [Compound 119, 7-(7-(((R)-6,7-dihydro-5H-cyclopenta[b]pyridin-5-yl)amino)thieno[2,3-c]pyridin-2-yl)-3-isopropyl-5-(2-(tetrahydro-2H-pyran-4-yl)ethyl)-6-(4H-1,2,4-triazol-3-yl)-2,3-dihydrothieno[3,2-b]pyridine 1,1-dioxide]
15 | 6180 | 184 | Cc1nnc(-c2c(CCC3CCCO3)nc3c(c2-c2cc4ncnc(N[C@@H]5CCc6ncccc65)c4s2)S(=O)(=O)CC3C(C)C)o1 (stereo partly drawn) [Compound 100, N—(R)-4-aza-1-indanyl(2-(3-isopropyl-6-(5-methyl-1,3,4-oxadiazol-2-yl)-1,1-dioxo-5-[2-(tetrahydro-2-furyl)ethyl]-1λ^6-thia-4-aza-7-indanyl}-1-thia-4,6-diaza-7-indenyl)amine]
